Series [1] is described as follows: In vitro fluorescence quenching by I^- (Stern-Volmer). The format is physicochemical. The method, then: (§1) Computations. In vitro fluorescence quenching studies were carried out at peak excitation and emission wavelengths. Microliter aliquots of the sodium salt of the quenching anion (1 M) were added to indicator solution in 5 mM sodium phosphate (pH 7.2, unless indicated otherwise). Fluorescence intensities in the absence (Fo) and presence (F) of quencher anion ([Q]) were measured to give the Stem-Volmer constant (Kq) as defined by: Fo /F=1+Kq [Q].

The nature of series [2]: In vitro fluorescence quenching by Cl^- (Stern-Volmer). The note with it: in water (or saline). The format is physicochemical. The method, then: as §1
In series [3] the test system is cells. Nature of the series: Fluorescence lifetime in cells (frequency-domain microfluorimetry). The format is cell-based. How it is done:
Time resolved fluorescence measurements. Fluorescence lifetime and anisotropy decay measurements were carried out in the frequency domain by cuvette fluorimetry using a Fourier transform fluorimeter (48000 MHF, SLM Instruments, Urbana, Ill.) or by fluorescence microscopy using epifluorescence microscope optics in place of the cuvette compartment (Verkman et al., 1991). For microscopy measurements, impulse-modulated vertically polarized light (442 nm, He--Cd laser 35 mwatts) was reflected onto the sample by a 510 nm dichroic mirror and objective lens; emitted fluorescence was filtered by a 515 nm barrier filter and passed through a rotatable analyzing calcite polarizer. […]
Analysis of lifetime and time-resolved anisotropy was performed by a comparative approach. […] Median phase and modulation values for paired data were analyzed by nonlinear least-squares for determination of lifetimes and rotational correlation times.
A calibration study was done to determine the intracellular sensitivity of LZQ to I^-. […] LZQ fluorescence changed reversibly in response to changes in solution I^-. […] Fluorescence lifetime analysis was done to determine whether LZQ fluorescence is quenched in cells by substances other than I^-. Nanosecond lifetimes were measured by frequency-domain microfluorimetry. […]

The subject of series [4] is cells. Put plainly: Toxicity in assays of cell growth. Conditions: 2 mM in culture medium for 72 h. It counts as cell-based. How it is done:
(§2) LZQ and LMQ were loaded into cells efficiently by hypotonic shock or passive incubation. […] As was found for SPQ, LZQ and LMQ were non-toxic to cells in assays of cell growth (2 mM in culture medium for 72 h).

The subject of series [5] is cells. Nature of the series: Chemical stability in cells (thin layer chromatography of lysates). It counts as cell-based. The note with it: TLC of lysates from loaded cells. The method, then:
as §2

Series [6] has as its system cells. Put plainly: Time-resolved anisotropy in cells. It counts as cell-based. The method, then: Time resolved fluorescence measurements. Fluorescence lifetime and anisotropy decay measurements were carried out in the frequency domain by cuvette fluorimetry using a Fourier transform fluorimeter (48000 MHF, SLM Instruments, Urbana, Ill.) or by fluorescence microscopy using epifluorescence microscope optics in place of the cuvette compartment (Verkman et al., 1991). For microscopy measurements, impulse-modulated vertically polarized light (442 nm, He--Cd laser 35 mwatts) was reflected onto the sample by a 510 nm dichroic mirror and objective lens; emitted fluorescence was filtered by a 515 nm barrier filter and passed through a rotatable analyzing calcite polarizer. In some experiments, a biconcave lens was introduced just in front of the dichroic mirror to diverge beam diameter in the focal plane to […].
Analysis of lifetime and time-resolved anisotropy was performed by a comparative approach. Generally six pairs of measurements (each acquisition 8 s) were obtained, comparing sample and reference (fluorescein in 0.1 N NaOH, lifetime 4.0 ns) for measurement of lifetime, and parallel and perpendicular orientations of the emission polarizer for measurement of anisotropy decay. The phase-modulation data consisted of phase angles and modulation ratios at 40 discrete, equally spaced modulation frequencies (5-200 MHz). The analyzing polarizer was positioned at the magic angle for lifetime measurements. Additional details of the data acquisition and analysis routines were described previously (Verkman et al., 1991). Median phase and modulation values for paired data were analyzed by nonlinear least-squares for determination of lifetimes and rotational correlation times.
Time-resolved anisotropy was measured to quantify intracellular LZQ binding. In water, LZQ rotated freely with a single-component rotational correlation time of 121±3 ps (n=3). For LZQ in cells, a plot of differential phase and modulation amplitude ratio indicated a two-component anisotropy decay model with a major component (fractional amplitude 0.90-0.94) of 144±10 ps, similar to that in water.

Series [7] can be described thus: Stopped-flow response to addition and removal of I^-. The format is physicochemical.
Series [8] deals with CFTR. Nature of the series: Colabeling: effect of LZQ on SPQ fluorescence / CFTR-mediated Cl^- transport. The format is cell-based. The note with it: Cl^-/NO3^- exchange; SPQ alone vs. colabeled with LZQ. How it is done: Fluorescence microscopy. Fluorescence microscopy measurements were performed as described previously (Chao et al., 1989). Briefly, coverglasses were mounted in a 0.5 ml perfusion chamber in which the cell-free glass surface made contact with an oil immersion objective (Nikon ×40 magnification, numerical aperture[NA] 1.3). Cell fluorescence was excited at 365±10 nm (SPQ) or 420 nm±10 nm (LZQ and LMQ). Emitted fluorescence was detected by a photomultiplier in a Nikon inverted epifluorescence microscope using a 410 nm dichroic mirror and 420 nm barrier filter (SPQ) or a 455 nm dichroic mirror and 500 nm barrier filter (LZQ). For cells colabeled with SPQ and LZQ, SPQ fluorescence was excited at 365±10 nm and detected using a 410 nm dichroic mirror and 455±30 nm interference filter. Confocal fluorescence micrographs were obtained using a Nipkow wheel confocal microscope and cooled CCD camera detector using a ×60 oil immersion objective (Nikon, NA 1.4). […]
Transport measurements. […] For fluorescence microscopy, glass coverslips were then mounted in a perfusion chamber (flow ~2 ml/min) in which solutions were exchanged using a 4-way valve. For microplate reader measurements, cells in 96-well plates were bathed in […] of the `1st buffer` (see Table 3) and […] of the Cl^- -containing, I^- -free solution was injected into the well to drive Cl^- /I^- exchange (protocol 1). […]

The structures appear in SMILES notation. Some results are limits rather than exact numbers.

For `[O-]c1nc2c(N[C@@H]3O[C@H](CO)[C@@H](O)[C@H]3O)ncnc2[n+]2ccccc12` [I, 4-(β-D-ribofuranosylamino)-pyrido [2,1-h] pteridin-11-ium-5-olate], the “Ksv (I^-), Stern Volmer quenching constant” value in series [1] (Table 4) came to 60 M⁻¹. Moreover, in series [1] (in water (or saline)), the “Stern-Volmer constant, quenching by I^-” value worked out at 60 M⁻¹. Also, the “effect of pH on I^- sensitivity” value in series [1] (pH 4.5-8) is “not affected”. Moreover, the “Stern-Volmer constant, Cl^-” value in series [2] was under 1 M⁻¹. Further, the “quenching by intracellular components” value in series [3] is recorded as “quenched little by intracellular components”. The “fluorescence lifetime in cells” value in series [3] (in the absence of I^-, n=4) is listed as 6.5±0.3 ns. The “toxicity to cells (cell growth)” value in series [4] was “non-toxic”. The “chemical stability in cells” value in series [5] is “remained chemically stable in cells”. In addition, in series [6], the “binding to intracellular components” value is recorded as “negligible binding”. Also, in series [6] (in cells), the “fractional amplitude of major component” value is listed as 0.90-0.94. Moreover, the “rotational correlation time, major component” value in series [6] (in cells, two-component model) came to 144±10 ps. Besides, the “response time to rapid addition and removal of I^-” value in series [7] is listed as under 1 ms. For the same compound, the “effect on time course of SPQ fluorescence / CFTR-mediated Cl^- transport” value in series [8] is “did not affect the time course of SPQ fluorescence”.

Source of the values: patent publication US6201116A, “Halide indicators” (The Regents of the University of California, priority 1999, dated 2001).
